Source: patent US20170298056A1, “SMALL MOLECULE INHIBITORS OF HIV-1 ENTRY AND METHODS OF USE THEREOF” (Dana-Farber Cancer Institute, Inc., priority 2014, published 2017)

How the values were obtained:
HIV-1JR-FL = assay: Viral infection assay, recombinant HIV-1 pseudotyped with JR-FL Env (wild type and mutants), Cf2Th-CD4/CCR5 cells; format: cell-based; details: for IC50: Example 8 table, read-out: IC50 (JR-FL); for Therapeutic Index (TI): calculated from IC50 against JR-FL and A-MLV
Text: HIV-1 Env mutants. Mutations were introduced into the plasmid expressing the fulllength HIV-1YU2 or HIV-1JR-FL Envs using the QuikChange II site-directed mutagenesis protocol or the QuikChange multi site-directed mutagenesis kit (Stratagene). The presence of the desired mutations was confirmed by DNA sequencing. All HIV-1 Env residues are numbered based on alignment with the HXBc2 prototypic sequence, according to current convention.
(§1) Production of recombinant HIV-1 expressing luciferase. […] After 48 hours, the supernatant was collected, buffered with 50 mM Hepes pH 7.4 (final concentration) and centrifuged for 5 minutes at 750×g and 4° C. The virus-containing supernatant was used directly or frozen at −80° C.
(§2) Viral infection assay. Each test compound was serially diluted in DMSO in a 96-well B&W isoplate (PerkinElmer, Boston, Mass.) using an HP D300 Digital Dispenser, to a final volume of 450 nl. DMSO was used as a control. Viruses pseudotyped with a specific Env were added to each well and incubated briefly at room temperature. Cf2Th-CD4/CCR5 cells were detached with StemPro Accutase Cell Dissociation Reagent (Invitrogen, cat #A11105-01), washed once, and 5000 cells were added to each well. […] Following incubation, the medium was aspirated and cells were lysed with 30 μl of Passive Lysis Buffer (Promega, cat #E1941). The activity of the firefly luciferase, which was used as a reporter protein in the system, was measured with a Centro LB 960 luminometer (Berthold Technologies, Oak Ridge, Tenn.). One hundred microliters of assay buffer (15 mM MgSO4, 15 mM KH2PO4/K2HPO4 pH 7.8, 1 mM ATP and 1 mM DTT) was injected to each well, followed by a 50 μl injection of 1 mM Dluciferin potassium salt (BD Pharmingen, San Jose, Calif.); luminescence was measured for 2 sec. Infection of PBMC was done as above, but 20,000-40,000 cells/well and viruses concentrated by ultracentrifugation were used. After four hours of incubation with viruses, the cells were centrifuged at 200×g for 6 minutes at 4° C., resuspended in 100 μl RPMI-PBMC medium and incubated at 37° C. for an additional 36-40 hours (total 40-44 hours). Supernatant was removed after centrifugation at 400×g for 5 minutes and cells were processed to detect luciferase activity, as described above.

[1] = system: amphotropic murine leukemia virus (A-MLV); assay: Viral infection assay, control virus with A-MLV envelope; format: cell-based; details: Example 8 table; read-out: IC50 (A-MLV)
Experimental: as §1, §2
The effect of 18A on viral infection was tested using recombinant HIV-1 pseudotyped with the envelope glycoproteins of different primate immunodeficiency viruses or the amphotropic murine leukemia virus (A-MLV) as a control.

SMILES	IC50 (HIV-1JR-FL)	IC50 [1]	Therapeutic Index (TI) (HIV-1JR-FL)
COc1ccc(/C=N/NC(=O)Nc2cccc3nsnc23)cc1 [Compound 18A1]	> 112 µM	> 112 µM	
COc1ccc(/C=N/NC(=O)Nc2cccc3nsnc23)c(OC)c1 [Compound 18A2]	60 µM	101 µM	1.7
COc1ccc(/C=N/NC(=O)Nc2cccc3nsnc23)cc1OC [Compound 18A5]	5 µM	25.9 µM	5.1
O=C(N/N=C/c1ccccc1O)Nc1cccc2nsnc12 [Compound 18A10]	~0.7 µM	< 0.5 µM	<1
O=C(N/N=C/c1ccccc1)Nc1cccc2nsnc12 [Compound 18A13]	16.9 µM	75.2 µM	4.4
Cc1cc(/C=N/NC(=O)Nc2cccc3nsnc23)cc(C)c1O [Compound 18A16]	0.2 µM	0.1 µM	0.5
O=C(N/N=C/c1c(O)cc(O)cc1O)Nc1cccc2nsnc12 [Compound 18A17]	24.8 µM	64 µM	2.6
COc1cc(/C=N/NC(=O)Nc2cccc3nsnc23)ccc1O [Compound 18A18]	1.5 µM	0.8 µM	0.6
O=C(N/N=C/c1cccc(O)c1)Nc1cccc2nsnc12 [Compound 18A19]	6.6 µM	46.2 µM	7
O=C(N/N=C/c1ccc(O)c(O)c1)Nc1cccc2nsnc12 [Compound 18A20]	5.2 µM	56.3 µM	10.8
COc1cc(/C=N/NC(=O)Nc2cccc3nsnc23)cc(OC)c1OC [Compound 18A21]	> 112 µM	> 112 µM	
COc1ccc(/C=N/NC(=O)Nc2cccc3nsnc23)cc1O [Compound 18A25]	1.8 µM	11.6 µM	6.4
COc1ccc(/C=N/NC(=O)Nc2cccc3nsnc23)c(Cl)c1OC [Compound 18A30]	> 112 µM	> 112 µM	
O=C(N/N=C/c1ccc(O)c(Cl)c1)Nc1cccc2nsnc12 [Compound 18A32]	4 µM	19.2 µM	
O=C(N/N=C/c1cccc(F)c1)Nc1cccc2nsnc12 [Compound 18A34]	10.2 µM	69.4 µM	6.8
O=C(N/N=C/c1cccc(O)c1O)Nc1cccc2nsnc12 [Compound 18A36]	6.2 µM	50.5 µM	8.1
O=C(N/N=C/c1ccc(O)c([N+](=O)[O-])c1)Nc1cccc2nsnc12 [Compound 18A40]	7.6 µM	> 112 µM	>14.7
O=C(N/N=C/c1ccc(O)c(Br)c1)Nc1cccc2nsnc12 [Compound 18A48]	> 112 µM	> 112 µM	
O=C(N/N=C/c1cc(O)cc(O)c1)Nc1cccc2nsnc12 [Compound 18A49]	13 µM	> 112 µM	>8.6
O=C(N/N=C/c1ccc(Cn2cccn2)cc1)Nc1cccc2nsnc12 [Compound 18A52]	3.4 µM	37.3 µM	11
COc1ccc(/C=N/NC(=O)Nc2cccc3nsnc23)c(O)c1 [Compound 18A58]	> 112 µM	> 112 µM	
